{
  "source": "patent US6703372B1",
  "about": "“Macrolides” (Biochemie S.A., priority 1999, dated 2004)",
  "key": {"[1]": {"assay": "stability of the crystalline structure (X-ray powder diffraction pattern) under normal air humidity conditions", "assay_type": "physicochemical", "conditions": "kept for several weeks under normal air humidity conditions", "experimental": "“Stable monohydrate” as used herein includes a compound of formula I in the form of a monohydrate which is crystalline and which maintains its crystalline structure for at least 24 hours, e.g. for several weeks, under normal, e.g. normal air humidity, conditions. The crystalline structure of azithromycin in the form of a monohydrate may be determined by its (known) X-ray powder diffraction pattern. The X-ray powder diffraction pattern and the IR spectrum of azithromycin in the form of a monohydrate obtained according to the following examples corresponding to that of known (unstable) azithromycin in the form of a monohydrate."}, "[2]": {"conditions": "normal air humidity conditions, within some hours, stated as known, cited from earlier work"}},
  "note": "Read-outs that look alike come from different tables or passages of the source.",
  "data": [
    {"smiles": "CC[C@H]1OC(=O)[C@H](C)[C@@H](O[C@H]2C[C@@](C)(OC)[C@@H](O)[C@H](C)O2)[C@H](C)[C@@H](O[C@@H]2O[C@H](C)C[C@H](N(C)C)[C@H]2O)[C@](C)(O)C[C@@H](C)CN(C)[C@H](C)[C@@H](O)[C@]1(C)O", "note": "[9-deoxo-9a-aza-9a-methyl-9a-homoerythromycin A]", "values": [
      {"measurement": "crystallinity and X-ray powder diffraction pattern on storage", "setting": "[1]", "result": "maintains its crystallinity and its X-ray powder diffraction pattern"},
      {"measurement": "stability of the crystal structure", "setting": "[2]; listed as azithromycin in the form of a monohydrate", "result": "unstable"}
    ]},
    {"smiles": "CC[C@H]1OC(=O)[C@H](C)[C@@H](O[C@H]2C[C@@](C)(OC)[C@@H](O)[C@H](C)O2)[C@H](C)[C@@H](O[C@@H]2O[C@H](C)C[C@H](N(C)C)[C@H]2O)[C@](C)(O)C[C@@H](C)CN(C)[C@H](C)[C@@H](O)[C@]1(C)O", "note": "[azithromycin in the form of a dihydrate, 9-deoxo-9a-aza-9a-methyl-9a-homoerythromycin A, reference compound]", "values": [
      {"measurement": "stability of the crystal structure", "setting": "[2]", "result": "not to break down within some hours"}
    ]}
  ]
}
